Measurements: ChEMBL document CHEMBL1201862, “PubChem BioAssay data set” (2004)
Calls of active or inactive are those of the source.

Experiments:
[1] = target: T1, Caspase-3 (Homo sapiens, UniProt P42574); assay type: functional;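 note: Dose-response selectivity test against caspase-3 for candidate inhibitors of sentrin-specific proteases (SENPs)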
T1 sequence (P42574 whole entry): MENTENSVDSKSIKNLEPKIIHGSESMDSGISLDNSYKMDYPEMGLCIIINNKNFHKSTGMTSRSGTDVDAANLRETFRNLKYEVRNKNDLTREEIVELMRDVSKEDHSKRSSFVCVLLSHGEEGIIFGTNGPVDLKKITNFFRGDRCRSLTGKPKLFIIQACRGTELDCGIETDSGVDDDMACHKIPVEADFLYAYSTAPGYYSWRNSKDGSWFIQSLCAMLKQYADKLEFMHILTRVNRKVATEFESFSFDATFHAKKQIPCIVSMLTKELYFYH

[2] = target: T2, Sentrin-specific protease 7 (Homo sapiens, UniProt Q9BQF6); assay type: functional;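 note: Luminescence-based dose-response confirmation of ultra-high-throughput screening hits, measuring inhibition of SENP7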
T2 sequence (Q9BQF6 whole entry): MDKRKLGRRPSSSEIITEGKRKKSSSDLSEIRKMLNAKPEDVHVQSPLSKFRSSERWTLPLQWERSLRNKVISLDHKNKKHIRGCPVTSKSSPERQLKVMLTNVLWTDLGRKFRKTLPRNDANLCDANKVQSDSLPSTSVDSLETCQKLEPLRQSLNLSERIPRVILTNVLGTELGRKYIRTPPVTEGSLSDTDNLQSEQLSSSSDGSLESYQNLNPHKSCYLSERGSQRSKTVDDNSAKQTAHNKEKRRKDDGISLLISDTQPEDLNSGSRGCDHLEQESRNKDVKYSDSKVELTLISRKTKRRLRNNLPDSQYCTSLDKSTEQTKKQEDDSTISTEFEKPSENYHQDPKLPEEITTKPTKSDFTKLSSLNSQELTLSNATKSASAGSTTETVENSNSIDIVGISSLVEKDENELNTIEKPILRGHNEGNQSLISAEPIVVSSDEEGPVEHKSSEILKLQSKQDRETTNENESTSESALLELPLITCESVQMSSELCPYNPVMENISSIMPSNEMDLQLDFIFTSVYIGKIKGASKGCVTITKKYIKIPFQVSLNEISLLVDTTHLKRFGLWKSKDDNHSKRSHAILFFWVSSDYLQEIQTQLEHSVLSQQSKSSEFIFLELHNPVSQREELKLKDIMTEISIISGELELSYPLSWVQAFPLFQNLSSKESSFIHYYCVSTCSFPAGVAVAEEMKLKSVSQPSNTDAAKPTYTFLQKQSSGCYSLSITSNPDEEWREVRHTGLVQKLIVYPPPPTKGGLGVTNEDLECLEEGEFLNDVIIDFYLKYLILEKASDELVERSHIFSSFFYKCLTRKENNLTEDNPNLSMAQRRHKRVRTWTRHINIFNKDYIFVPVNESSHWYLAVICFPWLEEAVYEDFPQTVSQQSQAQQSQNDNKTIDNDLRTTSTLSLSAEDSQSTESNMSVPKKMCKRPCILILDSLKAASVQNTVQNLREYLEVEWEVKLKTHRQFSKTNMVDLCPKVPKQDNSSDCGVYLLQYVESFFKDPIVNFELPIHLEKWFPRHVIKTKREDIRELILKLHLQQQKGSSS

[3] = target: T3, Sentrin-specific protease 6 (Homo sapiens, UniProt Q9GZR1); assay type: functional;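 note: Luminescence-based dose-response confirmatory assay of SENP6 inhibition, following up an ultra-high-throughput screen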
T3 sequence (Q9GZR1 whole entry): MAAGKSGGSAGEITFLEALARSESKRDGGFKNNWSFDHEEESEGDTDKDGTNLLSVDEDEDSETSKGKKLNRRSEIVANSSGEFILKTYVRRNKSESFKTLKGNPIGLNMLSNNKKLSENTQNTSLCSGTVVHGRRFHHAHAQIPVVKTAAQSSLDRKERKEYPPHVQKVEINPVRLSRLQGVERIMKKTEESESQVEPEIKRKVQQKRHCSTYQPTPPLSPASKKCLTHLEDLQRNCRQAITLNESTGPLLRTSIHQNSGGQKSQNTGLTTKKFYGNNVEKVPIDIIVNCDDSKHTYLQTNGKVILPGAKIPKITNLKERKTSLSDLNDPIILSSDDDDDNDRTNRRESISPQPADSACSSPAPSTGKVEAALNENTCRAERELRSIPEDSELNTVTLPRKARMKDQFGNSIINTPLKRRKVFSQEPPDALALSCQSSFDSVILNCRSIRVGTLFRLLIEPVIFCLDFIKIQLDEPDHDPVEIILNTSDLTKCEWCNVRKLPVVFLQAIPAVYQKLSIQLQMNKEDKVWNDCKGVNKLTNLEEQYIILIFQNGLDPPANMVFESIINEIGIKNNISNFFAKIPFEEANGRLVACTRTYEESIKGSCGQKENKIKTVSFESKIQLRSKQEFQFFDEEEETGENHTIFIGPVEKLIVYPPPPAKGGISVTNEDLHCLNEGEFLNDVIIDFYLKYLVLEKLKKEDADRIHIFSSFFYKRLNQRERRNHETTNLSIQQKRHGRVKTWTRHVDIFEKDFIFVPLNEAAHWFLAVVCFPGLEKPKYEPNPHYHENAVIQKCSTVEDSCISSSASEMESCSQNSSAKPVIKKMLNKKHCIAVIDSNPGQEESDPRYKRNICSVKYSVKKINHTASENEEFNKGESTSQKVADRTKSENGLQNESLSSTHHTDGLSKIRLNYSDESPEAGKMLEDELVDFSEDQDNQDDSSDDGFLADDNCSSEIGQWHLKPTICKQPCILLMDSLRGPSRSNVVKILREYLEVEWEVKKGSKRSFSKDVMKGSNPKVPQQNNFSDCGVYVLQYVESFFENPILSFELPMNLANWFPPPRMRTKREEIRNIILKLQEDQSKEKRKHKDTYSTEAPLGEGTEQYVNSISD

[4] = target: T4, Sentrin-specific protease 8 (Homo sapiens, UniProt Q96LD8); assay type: functional;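 note: luminescence read-out of SENP8 inhibition, dose-response confirmation following an ultra-high-throughput screen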
T4 sequence (Q96LD8 whole entry): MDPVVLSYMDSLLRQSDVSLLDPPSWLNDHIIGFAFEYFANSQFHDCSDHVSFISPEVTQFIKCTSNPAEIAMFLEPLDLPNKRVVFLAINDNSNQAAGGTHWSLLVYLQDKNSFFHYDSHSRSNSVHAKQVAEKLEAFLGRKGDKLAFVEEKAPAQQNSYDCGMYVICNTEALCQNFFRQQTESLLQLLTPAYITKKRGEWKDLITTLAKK

[5] = target: Cytochrome P450 2C19 (Homo sapiens, UniProt P33261); test: Cytochrome panel assay with activity outcomes. Panel member name: p450-cyp2c19 Compounds with AC50 equal or less than 10 uM are considered active; assay type: functional
[6] = target: Cytochrome P450 3A4 (Homo sapiens, UniProt P08684);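 note: CYP3A4 tested as one member of a cytochrome P450 panel screen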
[7] = target: Cytochrome P450 2C9 (Homo sapiens, UniProt P11712)
[8] = Luminescence Cell-Based Dose Retest to Confirm Inhibitors of Cancer Stem Cells. [Related pubchem assays (depositor defined):AID2717, AID2721]; assay type: functional; settings: Homo sapiens
[9] = target: Protein Wnt-3a (Mus musculus, UniProt P27467); test: Wnt3a-driven reporter signaling inhibition, dose response, selectivity assay for Gli-SUFU antagonist project, Wnt-LIGHT cells, luminescence (AID 651570); assay type: functional; settings: read-out: IC50_Mean;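 note: Wnt-LIGHT reporter cells stimulated with conditioned medium from Wnt3a-producing cells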
[10] = target: Ras and Rab interactor 1/Tyrosine-protein kinase ABL1 (Homo sapiens, UniProt P00519+Q13671); assay type: functional;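 note: biochemical TR-FRET dose-response test measuring inhibition of binding between Rin1 and Abl proteins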
[11] = test system: SN12K1; test: cells; assay type: functional; settings: Homo sapiens
[12] = test system: P388; test: cells; assay type: functional; settings: Mus musculus
[13] = target: Glucose-6-phosphate 1-dehydrogenase (Homo sapiens, UniProt P11413); test: human G6PD enzyme inhibitors, dose response, selectivity assay for P. falciparum G6PD inhibitor project, biochemical, fluorescence (AID 504792); assay type: functional
[14] = target: SWI/SNF-related matrix-associated actin-dependent regulator of chromatin subfamily A member 2 (Homo sapiens, UniProt P51531); test: Luminescence-based cell-based high throughput dose response assay to identify activators of the function of SWI/SNF related, matrix associated, actin dependent regulator of chromatin, subfamily a, member 2 (SMARCA2, BRM).; assay type: functional
[15] = Counterscreen for activators of the function of SWI/SNF related, matrix associated, actin dependent regulator of chromatin, subfamily a, member 2 (SMARCA2, BRM): Luminescence-based cell-based high throughput dose response assay to identify non-selective compounds using the VP16 reporter assay.; assay type: functional
[16] = test system: P388/ADR; test: cells; assay type: functional; settings: Mus musculus
[17] = test system: Vero; test: cells; assay type: functional, Chlorocebus sabaeus; settings: Chlorocebus sabaeus, Vero

Protein Wnt-3a, sequence (P27467 whole entry): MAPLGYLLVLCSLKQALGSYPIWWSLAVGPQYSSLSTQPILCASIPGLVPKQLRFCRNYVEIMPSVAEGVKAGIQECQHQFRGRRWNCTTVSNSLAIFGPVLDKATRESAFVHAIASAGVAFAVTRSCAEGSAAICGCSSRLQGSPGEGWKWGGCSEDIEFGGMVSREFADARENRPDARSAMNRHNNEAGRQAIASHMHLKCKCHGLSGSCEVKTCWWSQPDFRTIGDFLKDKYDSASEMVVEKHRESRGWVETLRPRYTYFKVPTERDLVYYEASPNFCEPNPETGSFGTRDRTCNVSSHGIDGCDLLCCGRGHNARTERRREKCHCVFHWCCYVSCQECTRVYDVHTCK
Ras and Rab interactor 1/Tyrosine-protein kinase ABL1, sequence (P00519 whole entry): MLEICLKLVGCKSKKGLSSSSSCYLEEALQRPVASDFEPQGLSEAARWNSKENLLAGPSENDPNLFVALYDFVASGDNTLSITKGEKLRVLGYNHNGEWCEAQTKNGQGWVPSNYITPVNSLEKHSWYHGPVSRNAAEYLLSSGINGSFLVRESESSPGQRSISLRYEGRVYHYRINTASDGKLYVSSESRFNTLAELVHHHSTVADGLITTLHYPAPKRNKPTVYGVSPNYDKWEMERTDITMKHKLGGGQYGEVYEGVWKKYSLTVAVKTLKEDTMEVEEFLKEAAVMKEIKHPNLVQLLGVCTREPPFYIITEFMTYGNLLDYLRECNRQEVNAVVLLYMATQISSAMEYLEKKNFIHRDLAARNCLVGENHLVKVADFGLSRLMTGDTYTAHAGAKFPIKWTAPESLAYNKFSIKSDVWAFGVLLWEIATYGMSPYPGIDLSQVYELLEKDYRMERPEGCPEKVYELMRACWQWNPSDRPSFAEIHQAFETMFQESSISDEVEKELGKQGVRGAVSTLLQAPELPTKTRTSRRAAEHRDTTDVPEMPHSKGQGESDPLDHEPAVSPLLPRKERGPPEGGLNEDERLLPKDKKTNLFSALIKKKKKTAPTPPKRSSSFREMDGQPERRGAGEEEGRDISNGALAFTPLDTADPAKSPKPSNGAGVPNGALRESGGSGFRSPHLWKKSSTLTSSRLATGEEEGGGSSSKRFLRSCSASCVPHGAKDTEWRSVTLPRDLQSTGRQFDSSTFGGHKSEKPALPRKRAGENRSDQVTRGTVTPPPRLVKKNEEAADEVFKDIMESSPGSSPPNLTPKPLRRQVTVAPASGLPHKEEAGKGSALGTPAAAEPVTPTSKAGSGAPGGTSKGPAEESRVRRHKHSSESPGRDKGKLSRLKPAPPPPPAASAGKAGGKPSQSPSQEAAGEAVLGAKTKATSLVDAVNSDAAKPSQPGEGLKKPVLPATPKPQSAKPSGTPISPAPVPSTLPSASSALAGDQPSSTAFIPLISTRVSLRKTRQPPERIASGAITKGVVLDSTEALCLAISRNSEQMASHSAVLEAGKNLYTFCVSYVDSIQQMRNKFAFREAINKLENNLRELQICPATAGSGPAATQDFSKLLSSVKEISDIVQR
Ras and Rab interactor 1/Tyrosine-protein kinase ABL1, sequence (Q13671 whole entry): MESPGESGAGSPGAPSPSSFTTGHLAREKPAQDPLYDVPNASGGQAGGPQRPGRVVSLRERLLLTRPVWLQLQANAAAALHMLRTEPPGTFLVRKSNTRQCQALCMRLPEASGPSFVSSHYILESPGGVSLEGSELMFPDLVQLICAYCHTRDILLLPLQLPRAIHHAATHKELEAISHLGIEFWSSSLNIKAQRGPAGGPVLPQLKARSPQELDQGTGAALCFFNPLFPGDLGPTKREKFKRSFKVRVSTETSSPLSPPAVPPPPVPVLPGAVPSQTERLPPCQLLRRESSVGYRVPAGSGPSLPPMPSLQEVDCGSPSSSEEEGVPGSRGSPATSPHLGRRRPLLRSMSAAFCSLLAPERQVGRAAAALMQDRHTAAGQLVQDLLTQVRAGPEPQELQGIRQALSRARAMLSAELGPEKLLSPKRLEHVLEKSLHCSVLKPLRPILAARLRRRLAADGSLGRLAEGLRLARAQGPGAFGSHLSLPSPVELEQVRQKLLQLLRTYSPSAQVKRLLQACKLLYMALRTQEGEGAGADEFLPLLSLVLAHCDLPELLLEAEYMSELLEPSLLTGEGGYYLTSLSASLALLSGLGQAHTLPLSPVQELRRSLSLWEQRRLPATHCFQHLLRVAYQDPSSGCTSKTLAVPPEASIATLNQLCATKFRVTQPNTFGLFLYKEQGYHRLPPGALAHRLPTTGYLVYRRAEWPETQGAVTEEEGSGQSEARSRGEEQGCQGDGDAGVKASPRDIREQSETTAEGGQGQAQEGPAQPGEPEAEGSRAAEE
Glucose-6-phosphate 1-dehydrogenase, sequence (P11413 whole entry): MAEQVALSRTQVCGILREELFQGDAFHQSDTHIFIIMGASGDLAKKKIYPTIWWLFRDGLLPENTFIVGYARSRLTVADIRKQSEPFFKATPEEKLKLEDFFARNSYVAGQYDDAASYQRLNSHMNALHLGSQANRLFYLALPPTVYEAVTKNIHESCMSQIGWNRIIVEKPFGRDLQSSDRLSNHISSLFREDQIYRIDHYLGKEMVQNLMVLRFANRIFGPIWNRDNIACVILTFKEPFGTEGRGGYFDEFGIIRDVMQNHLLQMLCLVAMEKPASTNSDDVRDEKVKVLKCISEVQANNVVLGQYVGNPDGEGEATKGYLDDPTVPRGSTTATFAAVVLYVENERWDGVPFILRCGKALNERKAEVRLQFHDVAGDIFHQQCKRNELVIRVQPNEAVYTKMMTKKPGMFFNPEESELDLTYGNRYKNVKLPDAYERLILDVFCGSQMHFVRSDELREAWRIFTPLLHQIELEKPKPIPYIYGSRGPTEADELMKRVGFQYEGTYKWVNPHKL
Cytochrome P450 3A4, sequence (P08684 whole entry): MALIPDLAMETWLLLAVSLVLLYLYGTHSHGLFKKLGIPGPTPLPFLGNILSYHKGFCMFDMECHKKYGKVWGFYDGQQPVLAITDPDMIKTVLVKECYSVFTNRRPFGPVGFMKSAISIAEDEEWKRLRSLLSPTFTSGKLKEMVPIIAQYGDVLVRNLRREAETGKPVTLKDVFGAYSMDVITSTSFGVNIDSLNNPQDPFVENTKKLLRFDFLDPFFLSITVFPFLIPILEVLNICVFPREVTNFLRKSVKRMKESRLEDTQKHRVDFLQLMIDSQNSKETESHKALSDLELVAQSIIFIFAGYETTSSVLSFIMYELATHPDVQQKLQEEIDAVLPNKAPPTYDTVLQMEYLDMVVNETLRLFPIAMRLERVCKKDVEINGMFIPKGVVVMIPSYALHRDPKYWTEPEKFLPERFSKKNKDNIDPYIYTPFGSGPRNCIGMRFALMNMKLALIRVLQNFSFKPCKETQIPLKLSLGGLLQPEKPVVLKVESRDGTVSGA
Cytochrome P450 2C19, sequence (P33261 whole entry): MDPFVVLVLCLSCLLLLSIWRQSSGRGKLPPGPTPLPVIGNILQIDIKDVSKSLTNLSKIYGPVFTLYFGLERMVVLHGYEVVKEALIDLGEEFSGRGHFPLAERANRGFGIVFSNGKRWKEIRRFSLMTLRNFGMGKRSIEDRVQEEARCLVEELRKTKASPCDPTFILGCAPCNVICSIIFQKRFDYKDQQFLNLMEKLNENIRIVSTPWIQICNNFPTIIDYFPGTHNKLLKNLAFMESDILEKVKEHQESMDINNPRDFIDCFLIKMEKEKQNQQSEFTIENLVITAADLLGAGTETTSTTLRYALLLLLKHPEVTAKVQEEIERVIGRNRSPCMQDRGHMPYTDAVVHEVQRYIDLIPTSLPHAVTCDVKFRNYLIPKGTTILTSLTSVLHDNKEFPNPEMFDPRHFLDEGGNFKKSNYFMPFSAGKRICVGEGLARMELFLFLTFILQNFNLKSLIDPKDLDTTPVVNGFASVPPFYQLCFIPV
Cytochrome P450 2C9, sequence (P11712 whole entry): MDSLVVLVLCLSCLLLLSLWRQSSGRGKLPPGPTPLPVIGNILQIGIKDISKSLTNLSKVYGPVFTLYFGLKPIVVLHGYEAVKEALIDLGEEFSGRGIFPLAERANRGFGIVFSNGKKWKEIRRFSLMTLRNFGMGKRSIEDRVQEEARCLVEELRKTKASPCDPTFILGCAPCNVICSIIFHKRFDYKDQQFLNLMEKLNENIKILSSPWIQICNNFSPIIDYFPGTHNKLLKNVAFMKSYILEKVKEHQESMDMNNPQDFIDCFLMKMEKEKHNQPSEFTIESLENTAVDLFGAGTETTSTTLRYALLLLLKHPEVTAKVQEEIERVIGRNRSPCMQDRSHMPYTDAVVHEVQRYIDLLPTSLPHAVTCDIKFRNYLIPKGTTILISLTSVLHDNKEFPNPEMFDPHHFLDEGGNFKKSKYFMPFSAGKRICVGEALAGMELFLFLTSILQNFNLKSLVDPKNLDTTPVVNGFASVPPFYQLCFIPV

## O=C(Nc1ccc(Cl)cc1)C1=Cc2ccccc2OC1
[1]
  IC50: 26.5 µM (active)
[2]
  IC50: 5.5 µM (active)
[3]
  IC50: 9.3 µM (active)
[4]
  IC50: 10.1 µM (active)

## COc1cccc(-c2nc3ccc([N+](=O)[O-])cc3o2)c1
[1]
  IC50: 2.52 µM (active)
[2]
  IC50: < 1.55 µM (active)
[3]
  IC50: > 100 µM (inactive)
[4]
  IC50: > 100 µM (inactive)

## CCCN(CCC)CCc1cccc2c1CC(=O)N2 [ROPINIROLE]
[5]
  AC50: inconclusive
[6]
  AC50: inconclusive
[7]
  AC50: inconclusive

## CCOC(=O)c1c(NC(=O)C(=O)N/N=C/c2ccccc2O)sc2c1CCCCC2
[8]
  AC50: 2.31 µM (active)
[9]
  IC50: 6.55 µM (active)

## CC[C@]12c3[nH]c4ccc(Cl)cc4c3CCN1C(=O)[C@@H](CC(=O)NCCCN(C)C)C[C@@H]2C(=O)N1CCN(C(=O)c2ccco2)CC1
[10]
  IC50: 46.8 µM (inactive)

## COc1ccc(-c2csc(NC(=O)c3ccco3)n2)cc1
[1]
  IC50: 31.1 µM (active)
[2]
  IC50: 8.46 µM (active)
[3]
  IC50: 28.5 µM (active)
[4]
  IC50: 41.3 µM (active)

## Nc1cc(S(=O)(=O)O)cc2cc(S(=O)(=O)O)c(/N=N/c3ccc(-c4ccc(/N=N/c5c(S(=O)(=O)O)cc6cc(S(=O)(=O)O)cc(N)c6c5O)cc4)cc3)c(O)c12
[11]
  GI50: > 100 µM (inactive)
[12]
  GI50: > 100 µM (inactive)

## Cc1ccc(/C=C/C(=O)NC2CCCCCCC2)o1
[13]
  IC50: > 80 µM (inactive)
[14]
  EC50: > 91.1 µM (inactive)
[15]
  EC50: > 91.1 µM (inactive)

## CCOCCOc1ccc(OCCOCC)cc1
[16]
  GI50: 1.45 µM (inactive)
[11]
  GI50: 15 µM (inactive)
[12]
  GI50: 3.36 µM (inactive)

## CC(C)=CC(=O)OC1C2C(C)=CC(O)C(O)C2(C)C2C3(O)OCC24C(CC(=O)OC14)C(C)C3O (configuration not stated)
[16]
  GI50: 1.97 µM (inactive)
[11]
  GI50: 0.0259 µM (active)
[12]
  GI50: 0.0125 µM (active)

## COc1ccc(OC)c(Cc2cnc3nc(N)nc(N)c3c2C)c1 [PIRITREXIM ISETHIONATE]
[17]
  CC50: 0.37 µM (active)
[9]
  IC50: 3.35 µM (active)

## O=C(O)c1ccc(CSc2nnc(-c3cccnc3)n2-c2ccc(Br)cc2)cc1
[10]
  IC50: 11.8 µM (inactive)
